# pIC50, pKi: −log10 of the molar value. Active and inactive are the calls of the source. The calls are words filed in the database; no cut-off is given here.
# Tests used:
# Mus musculus [1] = experiment: Induction of PARP cleavage in human MDA-MB-231 cells xenografted in SCID mouse at 100 mg/kg, po administered as single dose measured after 16 hrs by Western blot analysis; format: functional, organism-based; design: dose 100 mg/kg
# Mus musculus [2] = experiment: Induction of procaspase-8 processing in human MDA-MB-231 cells xenografted in SCID mouse at 100 mg/kg, po administered as single dose measured after 2 hrs by Western blot analysis; format: functional, organism-based; design: dose 100 mg/kg
# Mus musculus [3] = experiment: Induction of degradation of cIAP1 in human MDA-MB-231 cells xenografted in SCID mouse at 100 mg/kg, po administered as single dose measured after 2 hrs by Western blot analysis; format: functional, organism-based; design: dose 100 mg/kg
# MDA-MB-231 [4] = experiment: Induction of apoptosis in human MDA-MB-231 cells assessed as activation of caspase-3 activity at 1.5 uM after 12 hrs by Western blot analysis; format: functional, cell-based
# MDA-MB-231 [5] = experiment: Antitumor activity against human MDA-MB-231 cells xenografted in SCID mouse assessed inhibition of tumor growth at 10 mg/kg, po administered daily for 5 days/week for 2 weeks; format: functional, organism-based; design: dose 10 mg/kg
# Mus musculus [6] = experiment: Induction of PARP cleavage in human MDA-MB-231 cells xenografted in SCID mouse at 100 mg/kg, po administered as single dose measured after 6 hrs by Western blot analysis; format: functional, organism-based; design: dose 100 mg/kg
# MDA-MB-231 [7] = experiment: Induction of cell death in human MDA-MB-231 cells incubated for 24 hrs by trypan blue exclusion assay; format: functional, cell-based
# Mus musculus [8] = experiment: Induction of PARP cleavage in human MDA-MB-231 cells xenografted in SCID mouse at 100 mg/kg, po administered as single dose measured after 2 hrs by Western blot analysis; format: functional, organism-based; design: dose 100 mg/kg
# MDA-MB-231 [9] = experiment: Induction of cell death in human MDA-MB-231 cells at 1 uM by trypan blue exclusion assay; format: functional, cell-based; conditions: TDE = time-dependent effect
# MDA-MB-231 [10] = experiment: Induction of apoptosis in human MDA-MB-231 cells assessed as activation of PARP cleavage at 1.5 uM after 12 hrs by Western blot analysis; format: functional, cell-based
# Mus musculus [11] = experiment: Induction of procaspase-8 processing in human MDA-MB-231 cells xenografted in SCID mouse at 100 mg/kg, po administered as single dose measured after 6 hrs by Western blot analysis; format: functional, organism-based; design: dose 100 mg/kg
# MDA-MB-231 [12] = experiment: Antitumor activity against human MDA-MB-231 cells xenografted in SCID mouse assessed inhibition of tumor growth at 30 mg/kg, po administered daily for 5 days/week for 2 weeks; format: functional, organism-based; design: dose 30 mg/kg
# Mus musculus [13] = experiment: Induction of degradation of cIAP1 in human MDA-MB-231 cells xenografted in SCID mouse at 100 mg/kg, po administered as single dose measured after 16 hrs by Western blot analysis; format: functional, organism-based; design: dose 100 mg/kg
# MDA-MB-231 [14] = experiment: Antitumor activity against human MDA-MB-231 cells xenografted in SCID mouse assessed inhibition of tumor growth at 100 mg/kg, po administered daily for 5 days/week for 2 weeks; format: functional, organism-based; design: dose 100 mg/kg
# Mus musculus [15] = experiment: Induction of degradation of cIAP1 in human MDA-MB-231 cells xenografted in SCID mouse at 7.5 mg/kg, iv administered as single dose measured after 24 hrs by Western blot analysis; format: functional, organism-based; design: dose 7.5 mg/kg
# Mus musculus [16] = experiment: Induction of PARP cleavage in human MDA-MB-231 cells xenografted in SCID mouse at 7.5 mg/kg, iv administered as single dose measured after 24 hrs by Western blot analysis; format: functional, organism-based; design: dose 7.5 mg/kg
# Mus musculus [17] = experiment: Induction of procaspase-8 processing in human MDA-MB-231 cells xenografted in SCID mouse at 7.5 mg/kg, iv administered as single dose measured after 24 hrs by Western blot analysis; format: functional, organism-based; design: dose 7.5 mg/kg
# MDA-MB-231 [18] = experiment: Antitumor activity against human MDA-MB-231 cells xenografted in SCID mouse assessed inhibition of tumor growth at 7.5 mg/kg, iv administered once/week for 2 weeks
# Mus musculus [19] = experiment: Toxicity in human MDA-MB-231 cells xenografted in SCID mouse assessed weight loss at 7.5 mg/kg, iv administered once/week for 2 weeks; conditions: in vivo, 336 h
# Canis familiaris = organism: Canis familiaris; experiment: Toxicity in dog assessed as drug tolerability; format: organism-based, Canis lupus familiaris; conditions: in vivo
# Plasma [20] = experiment: Half life in human MDA-MB-231 cells xenografted SCID mouse plasma at 30 mg/kg, po administered as single dose; format: ADME, organism-based; design: dose 30 mg/kg, route oral; conditions: in vivo
# Plasma [21] = experiment: Half life in human MDA-MB-231 cells xenografted SCID mouse plasma at 100 mg/kg, po administered as single dose; format: ADME, organism-based; design: dose 100 mg/kg, route oral; conditions: in vivo
# [22] = AUC (0 to t) in human MDA-MB-231 cells xenografted SCID mouse tumor at 10 mg/kg, iv administered as single dose; format: ADME, organism-based, Neoplasm; design: dose 10 mg/kg, route intravenous
# [23] = Tmax in human MDA-MB-231 cells xenografted SCID mouse tumor at 30 mg/kg, po administered as single dose; format: ADME, organism-based, Neoplasm; design: dose 30 mg/kg, route oral
# Plasma [24] = experiment: Oral bioavailability in human MDA-MB-231 cells xenografted SCID mouse plasma at 30 mg/kg administered as single dose; format: ADME, organism-based; conditions: in vivo
# Plasma [25] = experiment: AUC (0 to t) in human MDA-MB-231 cells xenografted SCID mouse plasma at 10 mg/kg, po administered as single dose; format: ADME, organism-based; design: dose 10 mg/kg, route oral; conditions: in vivo
# Plasma [26] = experiment: Half life in human MDA-MB-231 cells xenografted SCID mouse plasma at 10 mg/kg, po administered as single dose; format: ADME, organism-based; design: dose 10 mg/kg, route oral; conditions: in vivo
# MDA-MB-231 [27] = experiment: cells; conditions: Homo sapiens, MDA-MB-231, 96 h
# [28] = AUC (0 to t) in human MDA-MB-231 cells xenografted SCID mouse tumor at 30 mg/kg, po administered as single dose; format: ADME, organism-based, Neoplasm; design: dose 30 mg/kg, route oral
# [29] = Inhibition of Cytochrome P450; format: ADME
# Plasma [30] = experiment: AUC (0 to t) in human MDA-MB-231 cells xenografted SCID mouse plasma at 100 mg/kg, po administered as single dose; format: ADME, organism-based; design: dose 100 mg/kg, route oral; conditions: in vivo
# [31] = Toxicity in human prostate epithelial cells assessed as induction of cell death at 10 uM after 48 hrs by trypan blue exclusion assay; format: cell-based
# in vivo [32] = conditions: SCID, mouse, tumor, po, 10 mg/kg
# [33] = Tmax in human MDA-MB-231 cells xenografted SCID mouse plasma at 30 mg/kg, po administered as single dose; format: ADME, organism-based; design: dose 30 mg/kg, route oral
# [34] = target: E3 ubiquitin-protein ligase XIAP (Homo sapiens, UniProt P98170); experiment: Competitive inhibition of human XIAP BIR3 domain expressed in Escherichia coli BL21(DE3) after 2 to 3 hrs by fluorescence polarization assay
# Plasma [35] = experiment: Oral bioavailability in human MDA-MB-231 cells xenografted SCID mouse plasma at 100 mg/kg administered as single dose; format: ADME, organism-based; conditions: in vivo
# [36] = AUC (0 to t) in human MDA-MB-231 cells xenografted SCID mouse tumor at 10 mg/kg, po administered as single dose; format: ADME, organism-based, Neoplasm; design: dose 10 mg/kg, route oral
# in vivo [37] = conditions: SCID, mouse, tumor, iv, 10 mg/kg
# [38] = Tmax in human MDA-MB-231 cells xenografted SCID mouse tumor at 10 mg/kg, po administered as single dose; format: ADME, organism-based, Neoplasm; design: dose 10 mg/kg, route oral
# in vivo [39] = conditions: SCID, mouse, tumor, po, 100 mg/kg
# [40] = Tmax in human MDA-MB-231 cells xenografted SCID mouse plasma at 10 mg/kg, po administered as single dose; format: ADME, organism-based; design: dose 10 mg/kg, route oral
# Plasma [41] = experiment: Half life in human MDA-MB-231 cells xenografted SCID mouse plasma at 10 mg/kg, iv administered as single dose; format: ADME, organism-based; design: dose 10 mg/kg, route intravenous; conditions: in vivo
# Plasma [42] = experiment: AUC (0 to t) in human MDA-MB-231 cells xenografted SCID mouse plasma at 10 mg/kg, iv administered as single dose; format: ADME, organism-based; design: dose 10 mg/kg, route intravenous; conditions: in vivo
# Plasma [43] = experiment: Oral bioavailability in human MDA-MB-231 cells xenografted SCID mouse plasma at 10 mg/kg administered as single dose; format: ADME, organism-based; conditions: in vivo
# [44] = AUC (0 to t) in human MDA-MB-231 cells xenografted SCID mouse tumor at 100 mg/kg, po administered as single dose; format: ADME, organism-based, Neoplasm; design: dose 100 mg/kg, route oral
# [45] = Tmax in human MDA-MB-231 cells xenografted SCID mouse tumor at 10 mg/kg, iv administered as single dose; format: ADME, organism-based, Neoplasm; design: dose 10 mg/kg, route intravenous
# [46] = Tmax in human MDA-MB-231 cells xenografted SCID mouse tumor at 100 mg/kg, po administered as single dose; format: ADME, organism-based, Neoplasm; design: dose 100 mg/kg, route oral
# [47] = Toxicity in human MCF12F cells assessed as induction of cell death at 10 uM after 48 hrs by trypan blue exclusion assay; format: cell-based
# in vivo [48] = conditions: SCID, mouse, tumor, po, 30 mg/kg
# [49] = target: Baculoviral IAP repeat-containing protein 3 (Homo sapiens, UniProt Q13489); experiment: Competitive inhibition of human cIAP2 BIR3 domain expressed in Escherichia coli BL21(DE3) after 2 to 3 hrs by fluorescence polarization assay
# Plasma [50] = experiment: AUC (0 to t) in human MDA-MB-231 cells xenografted SCID mouse plasma at 30 mg/kg, po administered as single dose; format: ADME, organism-based; design: dose 30 mg/kg, route oral; conditions: in vivo
# SK-OV-3 = experiment: cells; conditions: Homo sapiens, SK-OV-3, 96 h
# Mus musculus [51] = experiment: Toxicity in human MDA-MB-231 cells xenografted in SCID mouse at 200 mg/kg, po administered daily for 5 days/week for 2 to 3 weeks; conditions: in vivo
# [52] = Aqueous solubility of the compound; format: physicochemical; conditions: buffer
smiles,measurement,setting,value
CN[C@@H](C)C(=O)N[C@H]1CN(C(=O)CC(C)C)CC[C@H]2CC[C@@H](C(=O)NC(c3ccccc3)c3ccccc3)N2C1=O,Activity,Mus musculus [1],Active
same,Activity,Mus musculus [2],Active
same,Activity,Mus musculus [3],Active
same,Activity,MDA-MB-231 [4],Active
same,TGI,MDA-MB-231 [5],inactive
same,Activity,Mus musculus [6],Active
same,Activity,MDA-MB-231 [7],Dose-dependent effect
same,Activity,Mus musculus [8],Active
same,Activity,MDA-MB-231 [9],tde
same,Activity,MDA-MB-231 [10],Active
same,Activity,Mus musculus [11],Active
same,TGI,MDA-MB-231 [12],Active
same,Activity,Mus musculus [13],Active
same,TGI,MDA-MB-231 [14],Active
CC(=O)O[C@@]12CO[C@@H]1C[C@H](O)[C@@]1(C)C(=O)[C@H](O)C3=C(C)[C@@H](OC(=O)[C@H](O)[C@@H](NC(=O)OC(C)(C)C)c4ccccc4)C[C@@](O)([C@@H](OC(=O)c4ccccc4)[C@H]21)C3(C)C.O.O.O [DOCETAXEL],Activity,Mus musculus [15],inactive
same,Activity,Mus musculus [16],inactive
same,Activity,Mus musculus [17],Active
same,TGI,MDA-MB-231 [18],Active
same,Activity,Mus musculus [19],Toxic
CN[C@@H](C)C(=O)N[C@H]1CN(C(=O)CC(C)C)CC[C@H]2CC[C@@H](C(=O)NC(c3ccccc3)c3ccccc3)N2C1=O [XEVINAPANT],Activity,Canis familiaris,Non-toxic
same,t1/2,Plasma [20],2.3 h
same,t1/2,Plasma [21],5.4 h
same,AUC(0-t),[22],8300 ng·h/mL
same,Tmax,[23],2 h
same,F,Plasma [24],38%
same,AUCt,Plasma [25],1200 ng·h/mL
same,t1/2,Plasma [26],2.4 h
same,pIC50,MDA-MB-231 [27],6.84
same,AUC(0-t),[28],9600 ng·h/mL
same,inhibition (INH),[29],Not Active
same,AUCt,Plasma [30],17400 ng·h/mL
same,Activity,[31],Non-toxic
same,Cmax,in vivo [32],260 ng/mL
same,Tmax,[33],2 h
same,pIC50,[34],6.65
same,pKi,[34],7.18
same,F,Plasma [35],46%
same,AUC(0-t),[36],1100 ng·h/mL
same,Cmax,in vivo [37],3600 ng/mL
same,Tmax,[38],1 h
same,Cmax,in vivo [39],10800 ng/mL
same,Tmax,[40],1 h
same,t1/2,Plasma [41],3 h
same,AUCt,Plasma [42],3800 ng·h/mL
same,F,Plasma [43],31%
same,AUC(0-t),[44],57300 ng·h/mL
same,Tmax,[45],0.25 h
same,Tmax,[46],2 h
same,Activity,[47],Non-toxic
same,Cmax,in vivo [48],2400 ng/mL
same,pIC50,[49],7.66
same,pKi,[49],8.29
same,AUCt,Plasma [50],4300 ng·h/mL
same,pIC50,SK-OV-3,6.85
same,Activity,Mus musculus [51],Non-toxic
same,solubility,[52],> 50 mg/mL

# From ChEMBL document CHEMBL2157893, “A potent and orally active antagonist (SM-406/AT-406) of multiple inhibitor of apoptosis proteins (IAPs) in clinical development for cancer treatment” (J Med Chem, 2011)
